The compounds below were run against Glutathione S-transferase 2 (Onchocerca volvulus) (assay: The compound was tested for it's inhibitory activity against Onchocerca volvulus Glutathione S-transferase 2).
For NC(CCC(=O)NC(CSC1CCCC(=O)C1)C(=O)NCC(=O)O)C(=O)O (centres undefined) [2-Amino-4-[1-(carboxymethyl-carbamoyl)-2-(3-oxo-cyclohexylsulfanyl)-ethylcarbamoyl]-butyric acid], the IC50 was 220 µM.
In the case of CC(C)C(=O)CC(SCC(NC(=O)CCC(N)C(=O)O)C(=O)NCC(=O)O)c1ccccc1 (centres undefined) [2-Amino-4-[1-(carboxymethyl-carbamoyl)-2-(4-methyl-3-oxo-1-phenyl-pentylsulfanyl)-ethylcarbamoyl]-butyric acid], the IC50 is reported as 31.9 µM.
In the case of CCCCOC(=O)CC(SCC(NC(=O)CCC(N)C(=O)O)C(=O)NCC(=O)O)C(=O)O (centres undefined) [2-[2-(4-Amino-4-carboxy-butyrylamino)-2-(carboxymethyl-carbamoyl)-ethylsulfanyl]-succinic acid 4-butyl ester], the IC50 is reported as 48 µM.
With N[C@@H](CCC(=O)N[C@@H](CS[C@H](CC(=O)O)C(=O)O)C(=O)NCC(=O)O)C(=O)O [2-[2-(4-Amino-4-carboxy-butyrylamino)-2-(carboxymethyl-carbamoyl)-ethylsulfanyl]-succinic acid] the IC50 was 19.1 µM.

From BindingDB's records for doi:10.1016/s0960-894x(00)00142-6 (University of Wales, 2000)
